# Experimental data published in patent publication US11919854B2, “P2RX7 modulators in therapy” (Centre national de la recherche scientifique, priority 2018, dated 2024).
# “Also recorded” adds a separate entry of the source.
# How the values were obtained:
# B16F10 cells = test: B16F10 cell death (XTT absorbance); assay type: cell-based, mouse; conditions: 3 h treatment with BzATP and HEI3090
# Method: A. Large pore opening. Dot plot of representative experiment. Numbers highlighted the percentage of positive cells. […] B. representative curve of XTT absorbance over the time. […] Mean±SEM are shown. ***, p<0.001; ****, p<0.0001 Mann-Whitney test.
# Of interest, potentiation of large pore opening correlated with increased-B16F10 cell death, as illustrated in FIG. 9. Cells treated during 1 h with BzATP and HEI3090 incorporated 3-fold more Topro3 than cells treated with BzATP only (FIG. 9A). Longer incubation increased cell death, since it was observed up to 80% of dead cells after 3 h treatment (FIG. 9B).
# P2RX7 = test: Large pore opening in splenocytes from control or p2rx7 KO mice; assay type: cell-based, mouse; conditions: HEI3090 50 μM, BzATP 500 μM
# Method: (§1) A. Splenocytes from control or p2rx7^exon2 KO mice were isolated and treated with HEI3090 (50 μM) in presence of absence of BzATP (500 μM). B. Large pore opening induced by increasing concentration of BzATP in presence or absence of HEI3090 in human P2RX7 expressing cells.
# (§2) Indeed, with the same BzATP concentration, more cells are positive for Topro3 staining.
# [1] = tested on: B16F10 or LLC (Lewis Lung Cancer) cells; test: Syngeneic tumor mice models, statements covering both B16F10 and LLC; assay type: in vivo, C57BL6 mice
# Method: 5×10^5 LLC or 5×10^5 B16F10 cells were injected sub cutaneously in the right flank of C57BL6 mice. Mice received HEI3090 (ip, 2.5 mg/kg in 10% DMSO/PBS) daily or placebo (10% DMSO/PBS). A,C. incidence of tumor appearance B,D. Tumor size (mm2) and tumor weight at sacrifice day (J12). E. HEI-treated tumors are more immunogenic. Expression of CMH1 (H2K^b/D^b) and PD-L1 by LLC (black) and B16F10 (grey) tumors is shown in dot plots. Numbers highlighted the percentage of tumor cells positive for H2K^b/D^b and PD-L1. […] F. CD-45 positive infiltrates is increased in LLC and B16F10 tumors. *, p<0.05; **, p<0.01; ***, p<0.001 Mann-Whitney test.
# 5×10^5 LLC or 5×10^5 B16F10 cells were injected sub cutaneously in the right flank of C57BL6 mice. Mice received HEI3090 (ip, 2.5 mg/kg in 10% DMSO/PBS) daily or placebo (10% DMSO/PBS). A. The quantity of immunosuppressive cells is reduced. Dot plot of representative experiment. Numbers highlighted the percentage of M-MDSC and PMN-MDSC. […] B. The quantity of effector T cells ([…], NK, CD4+) is increased.
# 4.2. By killing tumoral cells, HEI3090 may represent a new anti-tumor treatment. To test this hypothesis, immunocompetent C57B16J mice were subcutaneously injected with 5×10^5 B16F10 or 5×10^5 LLC (Lewis Lung Cancer) cells and treated daily with HEI3090 (ip, 2.5 mg/kg in 10% DMSO/PBS) or placebo (10% DMSO/PBS). […] In both tumor mice models, tumors weight in the treated group was reduced by 10-fold in the B16F10 model (8 mg vs 81 mg) and by 4-folds in the LLC model (80 mg vs 295 mg). Of interest, tumors from the HEI3090 treated group are more immunogenic than tumors from the placebo group.
# human P2RX7 = target: T1, human P2RX7 (Homo sapiens, UniProt Q99572); test: Large pore opening with increasing BzATP in human P2RX7 expressing cells; assay type: cell-based; conditions: increasing concentration of BzATP with or without HEI3090
# T1 construct: expressed in transfected cells; host or cells: HEK cells
# T1 sequence (Q99572 1-595): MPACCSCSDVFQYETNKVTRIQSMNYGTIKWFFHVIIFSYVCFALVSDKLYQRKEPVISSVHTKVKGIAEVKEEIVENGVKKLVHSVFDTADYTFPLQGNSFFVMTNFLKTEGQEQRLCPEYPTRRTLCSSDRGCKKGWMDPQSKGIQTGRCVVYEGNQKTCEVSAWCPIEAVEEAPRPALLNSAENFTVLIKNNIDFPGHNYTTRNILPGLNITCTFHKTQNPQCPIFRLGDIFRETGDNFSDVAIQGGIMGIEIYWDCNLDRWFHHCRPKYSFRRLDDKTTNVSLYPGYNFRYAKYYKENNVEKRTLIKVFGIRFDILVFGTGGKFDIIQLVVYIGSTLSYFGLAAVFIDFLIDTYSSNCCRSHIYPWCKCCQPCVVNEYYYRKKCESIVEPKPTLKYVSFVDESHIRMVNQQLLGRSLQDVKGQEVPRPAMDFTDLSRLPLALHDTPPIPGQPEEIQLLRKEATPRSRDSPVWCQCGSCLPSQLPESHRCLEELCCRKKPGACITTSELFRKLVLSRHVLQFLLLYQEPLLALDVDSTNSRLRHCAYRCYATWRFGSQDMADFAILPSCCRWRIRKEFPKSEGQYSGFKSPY
# Method: as §1, §2
smiles,measurement,setting,value
"O=C(NCc1ccc(Cl)cc1Cl)[C@@H]1CCC(=O)N1C(=O)Nc1ccc(Cl)nc1 [HEI3090, (S)—N^1-(6-Chloropyridin-3-yl)-N^2-(2,4-dichlorobenzyl)-5-oxopyrrolidine-1,2-dicarboxamide]",dead cells,B16F10 cells,up to 80%
same,Topro3 incorporation / effect in splenocytes from P2rx7 KO mice,P2RX7,Topro3 incorporation is lost; also recorded: absence of effect
same,large pore opening in presence of BzATP,P2RX7; splenocytes from control mice,potentializes large pore opening in presence of BzATP
same,CD45 positive cells in tumors,[1]; HEI3090 ip 2.5 mg/kg daily,enriched with CD45 positive cells
same,delay of tumor appearance,[1]; HEI3090 ip 2.5 mg/kg daily,1 to 4 days
same,"ratio between effector cells (Tγδ, NK, CD4+) and total MDSC",[1]; HEI3090 ip 2.5 mg/kg daily,in favor to effector cells
same,tumor expression of PD-L1 vs placebo,[1]; HEI3090 ip 2.5 mg/kg daily,2 fold
same,tumor expression of major complex histocompatibility 1 (MCH1) vs placebo,[1]; HEI3090 ip 2.5 mg/kg daily,2 fold
same,tumor growth,[1]; HEI3090 ip 2.5 mg/kg daily,potently inhibits tumor growth
same,tumor volume and tumor weight,"[1]; HEI3090 ip 2.5 mg/kg daily, sacrifice day J12",drastically reduced
same,overall mice survival,[1]; therapeutically treated mice (increase from 22),50 days
same,immune cells within the spleen of treated mice,[1]; tumor bearing mice treated with HEI3090,unable to detect any modification of immune cells within the spleen
same,large pore opening (Topro3 staining),human P2RX7,enhanced large pore opening in presence of BzATP
